Results on eleven molecules are retold here after PubChem BioAssay (NCI).

Holding throughout (assay): growth of human tumour cells (NCI), 48 h
Experiment [1] relates to OVCAR-8 ovarian.
In experiment [2] the test system is A498 renal.
For experiment [3], the system named is CCRF-CEM leukemia.
Experiment [4] deals with M14 melanoma.
The test system of experiment [5] is SK-MEL-2 melanoma.
Experiment [6] deals with NCI-H226 lung.
For experiment [7], the system named is SK-MEL-5 melanoma.
The subject of experiment [8] is SF-539 CNS.
In experiment [9] the test system is SNB-78 CNS.
Experiment [10] concerns HOP-18 NSCLC.

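Each compound was tested at five concentrations against cells in 96-well plates for 48 hours. GI50: concentration for 50% inhibition of growth. TGI denotes the concentration required for complete inhibition of growth.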

As for `CC(=O)CC(OC(C)=O)C1=CCC2C(CC1C)OC(=O)C2C` (configuration not stated), the TGI in experiment [1], in experiment [2], in experiment [3], in experiment [4], in [5] and in [6] was > 100 µM in each case. Besides, the TGI in [7] and in [8] was > 100 µM each time.
Regarding `CC(=O)NNc1nc(C)c(C(=O)/C=C/c2ccc(NC(C)=O)cc2)s1`, the TGI in experiment [1], in [2], in [3], in experiment [9], in experiment [5] and in experiment [7] was > 100 µM throughout. The TGI in experiment [10] and in experiment [8] was > 100 µM each time.
As to `O=C(/C=C/c1ccc(O)cc1)c1ccc(O)cc1`, the TGI was 41.6 µM in experiment [1]; 65.1 µM in experiment [2]; > 85 µM in experiment [3]; 42.7 µM in experiment [4]; > 100 µM in [9]; 50 µM in experiment [5]. The TGI in [6] is 27.2 µM; in [7] it was 44.2 µM; in experiment [10] it was > 100 µM; in experiment [8] it was 54.2 µM.
With `Nc1ccc(C2=NNC(=O)Cc3cc4c(cc32)OCCO4)cc1Cl`, the GI50 in experiment [1] was 8.03 µM; in experiment [2], 0.944 µM; in [3] it was 3.47 µM; in [4] it was 2.3 µM; in [5] it was 2.81 µM; in [6], 8.12 µM. For the same molecule, the values for the GI50 in [7] and in experiment [8] were 2.28 µM and 4.15 µM, respectively. Further, the TGI is > 50 µM in experiment [1]; 19.9 µM in experiment [2]; > 50 µM in experiment [3]; > 50 µM in [4]; 44.6 µM in [5]; > 50 µM in experiment [6]. The figures for the TGI in [7] and in [8] were > 50 µM and 16.8 µM, respectively.
Regarding `O=C(O)c1nc2nc(Cl)c(Cl)nc2[nH]1`, the TGI in experiment [1], in [2], in [3], in [4], in experiment [5] and in experiment [6] was > 100 µM each time. The TGI in [7] and in [8] was > 100 µM each time.
On to `CCOC(=S)SCC(=O)O`, for which the TGI in [1] is > 100 µM; in experiment [2], > 100 µM; in experiment [3] it was 26.6 µM; in experiment [4], > 100 µM; in [5], > 100 µM; in experiment [6] it was > 100 µM. Further, the TGI in experiment [7] and in [8] was > 100 µM throughout.
For the molecule `CCCOc1cc2ccccc2cc1C(=O)Nc1nc(N)c2c(ccc3nccc32)[nH]1`, the GI50 is 0.203 µM in experiment [1]; 0.0312 µM in [2]; 0.042 µM in [3]; 0.0405 µM in experiment [4]; 0.0368 µM in experiment [5]; 1.31 µM in experiment [6]. Further, the results for the GI50 in experiment [7] and in experiment [8] were 0.0413 µM and 0.0538 µM, respectively. For the same molecule, the TGI in experiment [1] came to 1.69 µM; in experiment [2], 0.622 µM; in experiment [3], 1.49 µM; in [4] it was 1.08 µM; in [5], 1.32 µM; in experiment [6], 3.32 µM. The TGI in experiment [7] and in experiment [8] was 1.04 µM in each case.
As to `CCC(=C/[C@H](C)C/C=C/C(C)=C/[C@@H](C)C(=O)[C@@H](C)[C@H](O)[C@@H](C)CC)/C=C/[C@H]1OC(=O)C=C[C@@H]1C`, the GI50 in experiment [1], in [2], in [3], in [4], in experiment [5] and in [6] was < 0.01 µM each time. Further, the GI50 in experiment [7] and in experiment [8] was < 0.01 µM each time. For the same molecule, the TGI was 10.3 µM in [1]; < 0.01 µM in [2]; 2.66 µM in experiment [3]; 0.193 µM in experiment [4]; 0.554 µM in experiment [6]; 0.0342 µM in experiment [7]. Further, the TGI in experiment [8] was < 0.01 µM.
Regarding `COC[C@H]1Cn2cc(-c3nc(Nc4ccnn4C)ncc3C)nc2C(=O)N1Cc1ccc(F)c(F)c1`, the GI50 in [1] was 98.2 µM; in experiment [2], 0.0405 µM; in experiment [3], 29.3 µM; in experiment [4], 0.0403 µM; in [5], 0.0964 µM; in [6], 25.8 µM. Further, the GI50 in experiment [7] was 9.51 µM; in [8], 27.1 µM. Also, the TGI in experiment [1] is > 100 µM; in [2], 0.291 µM; in experiment [3], > 100 µM; in [4] it was > 100 µM; in experiment [5], > 100 µM; in [6], > 100 µM. Besides, the TGI in [7] is > 83.3 µM; in experiment [8], > 100 µM.
Take `c1ccc(Sc2ncnc3ccccc23)cc1`: the GI50 in experiment [1] is 19.8 µM; in [2] it was 15.4 µM; in experiment [3], 2.9 µM; in experiment [4], 12.3 µM; in experiment [5], 22.6 µM; in experiment [6] it was 13.4 µM. Besides, the GI50 in experiment [7] was 11.4 µM; in [8] it was 15.9 µM. Further, the TGI stood at 75.9 µM in experiment [1]; 39.2 µM in [2]; 61.4 µM in experiment [3]; 27.6 µM in experiment [4]; 63 µM in experiment [5]; 56.2 µM in experiment [6]. Also, the TGI in experiment [7] was found to be 24 µM; in experiment [8], 34.2 µM.
Regarding `Nc1ccccc1SC(CC(=O)c1ccccc1)c1cccc([N+](=O)[O-])c1` (configuration not stated), the GI50 in experiment [1] was 14.9 µM; in experiment [2] it was 16.6 µM; in experiment [3], 16 µM; in [4], 17.3 µM; in experiment [5] it was 20.6 µM; in experiment [6] it was 17.1 µM. Moreover, the GI50 is 15.4 µM in experiment [7] and 16.8 µM in experiment [8]. Further, the TGI in experiment [1] was 28.5 µM; in experiment [2], 30.9 µM; in [3] it was 50.8 µM; in experiment [4], 32.5 µM; in experiment [5], 35.8 µM; in [6] it was 35.2 µM. The TGI in experiment [7] worked out at 29 µM; in experiment [8], 30.7 µM.
